# According to the supplement of paper PMC10307832:
# Experiments:
# Assay in all cases: relative viability (nuclei count vs DMSO), 5 days (fraction); higher = more cells survive
# SK-LU-1 = system: SK-LU-1
# In short: (§1)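 Lung cancer cell lines in 1536-well plates got either a single drug or a fixed anchor-drug dose together with five library-drug doses (not always all listed) in √10 steps, by pin tool, on the day after seeding. Nuclei were counted after 5 days, and relative viability is the treated-to-vehicle ratio of nuclei counts. Values are medians of duplicate plates.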
# LK-2 = system: LK-2
# In short: as §1
# RERF-LC-KJ = system: RERF-LC-KJ
# In short: as §1
# UMC-11 = system: UMC-11
# In short: as §1
# HCC-366 = system: HCC-366
# In short: as §1
# NCI-H441 = system: NCI-H441
# In short: as §1
# NCI-H1437 = system: NCI-H1437
# In short: as §1
# NCI-H1755 = system: NCI-H1755
# In short: as §1
# NCI-H3122 = system: NCI-H3122
# In short: as §1
# HOP-62 = system: HOP-62
# In short: as §1
# NCI-H1734 = system: NCI-H1734
# In short: as §1
# PC-3 [JPC-3] = system: PC-3 [JPC-3]
# In short: as §1
# COR-L23 = system: COR-L23
# In short: as §1
# NCI-H596 = system: NCI-H596
# In short: as §1
# NCI-H727 = system: NCI-H727
# In short: as §1
# NCI-H1563 = system: NCI-H1563
# In short: as §1
# CAL-12T = system: CAL-12T
# In short: as §1
# ABC-1 = system: ABC-1
# In short: as §1
# NCI-H1651 = system: NCI-H1651
# In short: as §1
# EMC-BAC-2 = system: EMC-BAC-2
# In short: as §1
# NCI-H2347 = system: NCI-H2347
# In short: as §1
# HARA = system: HARA
# In short: as §1
smiles,measurement,setting,value
CCNC(=O)c1noc(-c2cc(C(C)C)c(O)cc2O)c1-c1ccc(CN2CCOCC2)cc1 [Luminespib] + Cc1nc(NC(=O)N2CCC[C@H]2C(N)=O)sc1-c1ccnc(C(C)(C)C(F)(F)F)c1 [Alpelisib] (partner 2 µM),relative viability,SK-LU-1; first compound 0.002 µM,1.33
same,relative viability,SK-LU-1; first compound 0.006325 µM,0.7
same,relative viability,SK-LU-1; first compound 0.02 µM,0.305
same,relative viability,SK-LU-1; first compound 0.06325 µM,0.18
same,relative viability,SK-LU-1; first compound 0.2 µM,0.161
same,relative viability,LK-2; first compound 0.002 µM,1.26
same,relative viability,LK-2; first compound 0.006325 µM,1.31
same,relative viability,LK-2; first compound 0.02 µM,0.691
same,relative viability,LK-2; first compound 0.06325 µM,0.71
same,relative viability,LK-2; first compound 0.2 µM,0.259
same,relative viability,RERF-LC-KJ; first compound 0.002 µM,0.813
same,relative viability,RERF-LC-KJ; first compound 0.006325 µM,0.894
same,relative viability,RERF-LC-KJ; first compound 0.02 µM,0.51
same,relative viability,RERF-LC-KJ; first compound 0.06325 µM,0.541
same,relative viability,RERF-LC-KJ; first compound 0.2 µM,0.242
same,relative viability,UMC-11; first compound 0.002 µM,0.943
same,relative viability,UMC-11; first compound 0.006325 µM,0.907
same,relative viability,UMC-11; first compound 0.02 µM,0.653
same,relative viability,UMC-11; first compound 0.06325 µM,0.342
same,relative viability,UMC-11; first compound 0.2 µM,0.129
same,relative viability,HCC-366; first compound 0.002 µM,0.442
same,relative viability,HCC-366; first compound 0.006325 µM,0.496
same,relative viability,HCC-366; first compound 0.02 µM,0.312
same,relative viability,HCC-366; first compound 0.06325 µM,0.0181
same,relative viability,HCC-366; first compound 0.2 µM,0.0182
same,relative viability,NCI-H441; first compound 0.002 µM,0.619
same,relative viability,NCI-H441; first compound 0.006325 µM,0.825
same,relative viability,NCI-H441; first compound 0.02 µM,0.739
same,relative viability,NCI-H441; first compound 0.06325 µM,0.126
same,relative viability,NCI-H441; first compound 0.2 µM,0.148
same,relative viability,NCI-H1437; first compound 0.002 µM,0.878
same,relative viability,NCI-H1437; first compound 0.006325 µM,0.919
same,relative viability,NCI-H1437; first compound 0.02 µM,1.16
same,relative viability,NCI-H1437; first compound 0.06325 µM,0.294
same,relative viability,NCI-H1437; first compound 0.2 µM,0.107
same,relative viability,NCI-H1755; first compound 0.002 µM,0.972
same,relative viability,NCI-H1755; first compound 0.006325 µM,0.887
same,relative viability,NCI-H1755; first compound 0.02 µM,0.823
same,relative viability,NCI-H1755; first compound 0.06325 µM,0.905
same,relative viability,NCI-H1755; first compound 0.2 µM,0.561
same,relative viability,NCI-H3122; first compound 0.002 µM,0.756
same,relative viability,NCI-H3122; first compound 0.006325 µM,0.672
same,relative viability,NCI-H3122; first compound 0.02 µM,0.648
same,relative viability,NCI-H3122; first compound 0.06325 µM,0.179
same,relative viability,NCI-H3122; first compound 0.2 µM,0.149
same,relative viability,HOP-62; first compound 0.002 µM,1.17
same,relative viability,HOP-62; first compound 0.006325 µM,0.79
same,relative viability,HOP-62; first compound 0.02 µM,0.603
same,relative viability,HOP-62; first compound 0.06325 µM,0.788
same,relative viability,HOP-62; first compound 0.2 µM,0.927
same,relative viability,NCI-H1734; first compound 0.002 µM,0.708
same,relative viability,NCI-H1734; first compound 0.006325 µM,0.736
same,relative viability,NCI-H1734; first compound 0.02 µM,0.541
same,relative viability,NCI-H1734; first compound 0.06325 µM,0.213
same,relative viability,NCI-H1734; first compound 0.2 µM,0.158
same,relative viability,PC-3 [JPC-3]; first compound 0.002 µM,1.09
same,relative viability,PC-3 [JPC-3]; first compound 0.006325 µM,0.908
same,relative viability,PC-3 [JPC-3]; first compound 0.02 µM,0.871
same,relative viability,PC-3 [JPC-3]; first compound 0.06325 µM,1.08
same,relative viability,PC-3 [JPC-3]; first compound 0.2 µM,0.957
same,relative viability,COR-L23; first compound 0.002 µM,0.825
same,relative viability,COR-L23; first compound 0.006325 µM,0.685
same,relative viability,COR-L23; first compound 0.02 µM,0.714
same,relative viability,COR-L23; first compound 0.06325 µM,0.0624
same,relative viability,COR-L23; first compound 0.2 µM,0.0515
same,relative viability,NCI-H596; first compound 0.002 µM,0.517
same,relative viability,NCI-H596; first compound 0.006325 µM,0.45
same,relative viability,NCI-H596; first compound 0.06325 µM,0.44
same,relative viability,NCI-H596; first compound 0.2 µM,0.464
same,relative viability,NCI-H727; first compound 0.002 µM,0.553
same,relative viability,NCI-H727; first compound 0.006325 µM,0.584
same,relative viability,NCI-H727; first compound 0.02 µM,0.504
same,relative viability,NCI-H727; first compound 0.06325 µM,0.234
same,relative viability,NCI-H727; first compound 0.2 µM,0.228
same,relative viability,NCI-H1563; first compound 0.002 µM,0.877
same,relative viability,NCI-H1563; first compound 0.006325 µM,0.942
same,relative viability,NCI-H1563; first compound 0.02 µM,0.95
same,relative viability,NCI-H1563; first compound 0.06325 µM,0.495
same,relative viability,NCI-H1563; first compound 0.2 µM,0.537
same,relative viability,CAL-12T; first compound 0.002 µM,1.21
same,relative viability,CAL-12T; first compound 0.006325 µM,1.25
same,relative viability,CAL-12T; first compound 0.02 µM,1.02
same,relative viability,CAL-12T; first compound 0.06325 µM,0.192
same,relative viability,CAL-12T; first compound 0.2 µM,0.0844
same,relative viability,ABC-1; first compound 0.002 µM,0.976
same,relative viability,ABC-1; first compound 0.006325 µM,0.95
same,relative viability,ABC-1; first compound 0.02 µM,1.15
same,relative viability,ABC-1; first compound 0.06325 µM,0.392
same,relative viability,ABC-1; first compound 0.2 µM,0.3
same,relative viability,NCI-H1651; first compound 0.002 µM,0.899
same,relative viability,NCI-H1651; first compound 0.006325 µM,0.854
same,relative viability,NCI-H1651; first compound 0.02 µM,0.881
same,relative viability,NCI-H1651; first compound 0.06325 µM,0.42
same,relative viability,NCI-H1651; first compound 0.2 µM,0.262
same,relative viability,EMC-BAC-2; first compound 0.002 µM,0.746
same,relative viability,EMC-BAC-2; first compound 0.006325 µM,0.707
same,relative viability,EMC-BAC-2; first compound 0.02 µM,0.61
same,relative viability,EMC-BAC-2; first compound 0.06325 µM,0.771
same,relative viability,EMC-BAC-2; first compound 0.2 µM,0.762
same,relative viability,NCI-H2347; first compound 0.002 µM,1.14
same,relative viability,NCI-H2347; first compound 0.02 µM,0.779
same,relative viability,NCI-H2347; first compound 0.06325 µM,0.936
same,relative viability,NCI-H2347; first compound 0.2 µM,0.382
same,relative viability,HARA; first compound 0.002 µM,0.835
same,relative viability,HARA; first compound 0.006325 µM,0.676
same,relative viability,HARA; first compound 0.02 µM,0.85
same,relative viability,HARA; first compound 0.06325 µM,0.759
same,relative viability,HARA; first compound 0.2 µM,0.103
